{"source": "patent US12428399B2", "about": "“Non-hygroscopic crystalline salts of a pyrazole compound, and pharmaceutical compositions and use thereof” (Yissum Research Development Company of the Hebrew …, priority 2019, dated 2025)", "key": {"[1]": {"assay": "Dynamic vapor sorption (DVS) analysis of salts", "assay_type": "physicochemical", "conditions": "for loss upon drying at 5% RH / gain from 5 to 95% RH / loss from 95 to 5% RH: DVS isotherm graph; for gain from 5 to 95% RH: adsorption cycle; for loss from 95 to 5% RH: desorption cycle", "description": "The crystalline adipate, benzoate, and tosylate salts were characterized with XRPD, DSC, TGA, and DVS. The DVS analyses were carried out using TA Instruments Q5000 Dynamic Vapor Sorption analyzer. The instrument was calibrated with standard weights and a sodium bromide standard for humidity."}, "[2]": {"assay": "Solubility by aliquot addition of test solvent with visual inspection", "assay_type": "physicochemical", "conditions": "solution from solubility test", "from_the_text": "Whether dissolution had occurred was judged by visual inspection after addition of each solvent aliquot."}, "[3]": {"tested_on": "acute myeloid leukemia (AML)", "conditions": "AML mouse models and human-patient-derived xenograph mouse models; cited from earlier work"}, "[4]": {"assay": "Bulk density of the ditosylate salt", "assay_type": "physicochemical"}, "[5]": {"tested_on": "Ser 45 β-catenin phosphorylation; p53 and β-catenin protein expression", "conditions": "cited from earlier work"}, "Myc, MDM2, and MCL1": {"tested_on": "Myc, MDM2, and MCL1", "conditions": "cited from earlier work"}, "CK1α": {"molecular_target": "CK1α (Homo sapiens, UniProt P48729)", "sequence (P48729 whole entry)": "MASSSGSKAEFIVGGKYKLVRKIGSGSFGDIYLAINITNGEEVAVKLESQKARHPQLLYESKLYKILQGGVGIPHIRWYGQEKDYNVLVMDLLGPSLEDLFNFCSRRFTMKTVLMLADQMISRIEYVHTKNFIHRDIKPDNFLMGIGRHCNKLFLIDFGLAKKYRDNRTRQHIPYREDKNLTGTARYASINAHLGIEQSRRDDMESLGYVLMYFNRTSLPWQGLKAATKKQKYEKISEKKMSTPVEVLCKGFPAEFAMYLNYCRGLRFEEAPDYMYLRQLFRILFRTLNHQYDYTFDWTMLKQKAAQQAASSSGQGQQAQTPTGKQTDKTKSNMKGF", "conditions": "cited from earlier work"}, "[6]": {"conditions": "indicated by DVS isotherm graph"}}, "note": "Where a name gives a salt, the structure may show the parent alone. Read-outs that look alike come from different tables or passages of the source.", "data": [{"compound": "Cn1ncc(-c2nc(NC3CCC(N)CC3)ncc2Cl)c1CC1CC1", "note": "(stereo not drawn) [benzoate salt, (1r,4r)-N^1-(5-chloro-4-(5-(cyclopropylmethyl)-1-methyl-1H-pyrazol-4-yl)pyrimidin-2-yl)cyclohexane-1,4-diamine]", "values": [{"measurement": "loss upon drying at 5% RH", "setting": "[1]", "value": 0.02, "unit": "%"}, {"measurement": "gain from 5 to 95% RH", "setting": "[1]", "value": 1.20, "unit": "%"}, {"measurement": "loss from 95 to 5% RH", "setting": "[1]", "value": 1.30, "unit": "%"}, {"measurement": "pH of Solution", "setting": "[2]; listed as Benzoate", "value": 4.31}]}, {"compound": "Cl.Cl.Cn1ncc(-c2nc(N[C@H]3CC[C@H](N)CC3)ncc2Cl)c1CC1CC1", "note": "[dihydrochloride salt, (1r,4r)-N^1-(5-chloro-4-(5-(cyclopropylmethyl)-1-methyl-1H-pyrazol-4-yl)pyrimidin-2-yl)cyclohexane-1,4-diamine dihydrochloride, reference compound]", "values": [{"measurement": "loss upon drying at 5% RH", "setting": "[1]", "value": 1.2, "unit": "%"}, {"measurement": "gain from 5 to 95% RH", "setting": "[1]", "value": 17, "unit": "%"}, {"measurement": "loss from 95 to 5% RH", "setting": "[1]", "value": 16, "unit": "%"}, {"measurement": "hygroscopicity", "setting": "[1]; background statement, no method given there", "value": "highly hygroscopic"}, {"measurement": "hygroscopicity", "setting": "[1]; [6]", "value": "highly hygroscopic"}, {"measurement": "pH of Solution", "setting": "[2]", "value": 1.55}, {"measurement": "treating acute myeloid leukemia (AML)", "setting": "[3]", "value": "effective"}]}, {"compound": "Cn1ncc(-c2nc(NC3CCC(N)CC3)ncc2Cl)c1CC1CC1", "note": "(stereo not drawn) [ditosylate salt, (1r,4r)-N^1-(5-chloro-4-(5-(cyclopropylmethyl)-1-methyl-1H-pyrazol-4-yl)pyrimidin-2-yl)cyclohexane-1,4-diamine]", "values": [{"measurement": "hygroscopicity", "setting": "[1]; [6]", "value": "not hygroscopic"}, {"measurement": "pH of Solution", "setting": "[2]", "value": 5.82}, {"measurement": "bulk density", "setting": "[4]", "value": 0.377, "unit": "g/mL"}, {"measurement": "Assay by HPLC (as free base)", "setting": "25° C./60% RH, 6-Month", "value": 100.5, "unit": "% w/w"}, {"measurement": "Purity by HPLC", "setting": "25° C./60% RH, 6-Month", "value": 99.8, "unit": "% area"}, {"measurement": "Water contectnt by Karl Fisher", "setting": "25° C./60% RH, 6-Month", "value": 0.41, "unit": "% w/w"}, {"measurement": "pTSA content by HPLC", "setting": "25° C./60% RH, 6-Month", "value": 48.6, "unit": "% w/w"}, {"measurement": "Assay by HPLC (as free base)", "setting": "25° C./60% RH, Initial", "value": 100.5, "unit": "% w/w"}, {"measurement": "Purity by HPLC", "setting": "25° C./60% RH, Initial", "value": 99.8, "unit": "% area"}, {"measurement": "Water contectnt by Karl Fisher", "setting": "25° C./60% RH, Initial", "value": 0.41, "unit": "% w/w"}, {"measurement": "pTSA content by HPLC", "setting": "25° C./60% RH, Initial", "value": 49.9, "unit": "% w/w"}, {"measurement": "Assay by HPLC (as free base)", "setting": "40° C./75% RH, 6-Month", "value": 100.3, "unit": "% w/w"}, {"measurement": "Purity by HPLC", "setting": "40° C./75% RH, 6-Month", "value": 99.8, "unit": "% area"}, {"measurement": "Water contectnt by Karl Fisher", "setting": "40° C./75% RH, 6-Month", "value": 0.58, "unit": "% w/w"}, {"measurement": "pTSA content by HPLC", "setting": "40° C./75% RH, 6-Month", "value": 49.5, "unit": "% w/w"}, {"measurement": "Assay by HPLC (as free base)", "setting": "40° C./75% RH, Initial", "value": 100.5, "unit": "% w/w"}, {"measurement": "Purity by HPLC", "setting": "40° C./75% RH, Initial", "value": 99.8, "unit": "% area"}, {"measurement": "Water contectnt by Karl Fisher", "setting": "40° C./75% RH, Initial", "value": 0.41, "unit": "% w/w"}, {"measurement": "pTSA content by HPLC", "setting": "40° C./75% RH, Initial", "value": 49.9, "unit": "% w/w"}]}, {"compound": "Cn1ncc(-c2nc(N[C@H]3CC[C@H](N)CC3)ncc2Cl)c1CC1CC1", "note": "[the Compound, (1r,4r)-N^1-(5-chloro-4-(5-(cyclopropylmethyl)-1-methyl-1H-pyrazol-4-yl)pyrimidin-2-yl)cyclohexane-1,4-diamine]", "values": [{"measurement": "Ser 45 β-catenin phosphorylation", "setting": "[5]", "value": "reduces"}, {"measurement": "p53 and β-catenin protein expression", "setting": "[5]", "value": "increases"}, {"measurement": "expression of key cancer initiating genes, including Myc, MDM2, and MCL1", "setting": "Myc, MDM2, and MCL1", "value": "significantly reduces"}, {"measurement": "CK1α inhibition", "setting": "CK1α", "value": "inhibitor"}]}, {"compound": "(1r,4r)-N^1-(5-chloro-4-(5-(cyclopropylmethyl)-1-methyl-1H-pyrazol-4-yl)pyrimidin-2-yl)cyclohexane-1,4-diamine [adipate salt]", "values": [{"measurement": "loss upon drying at 5% RH", "setting": "[1]", "value": 0.05, "unit": "%"}, {"measurement": "gain from 5 to 95% RH", "setting": "[1]", "value": 1.05, "unit": "%"}, {"measurement": "loss from 95 to 5% RH", "setting": "[1]", "value": 1.11, "unit": "%"}, {"measurement": "hygroscopicity", "setting": "[1]; [6]", "value": "not hygroscopic"}, {"measurement": "pH of Solution", "setting": "[2]", "value": 4.73}]}]}
